Experimental findings from patent US8791108B2, “Inhibitors of human immunodeficiency virus replication” (priority 2011, dated 2014) are described below.

In the first test the test system is recombinant NL-Rluc virus. Briefly: Inhibition of HIV replication (NL-RLuc luciferase reporter virus, MT-2 cells). In kind it is cell-based. The following applies: Human immunodeficiency virus 1, MT2, 120 h, read-out: Activity.
As to `Cc1nc2cc(C(=O)N(C)CCc3ccccn3)nn2c(-c2cc(F)c3c(c2C)CCCO3)c1[C@H](OC(C)(C)C)C(=O)O` [Example 89, (2S)-2-(tert-butoxy)-2-(7-(8-fluoro-5-methylchroman-6-yl)-5-methyl-2-(methyl(2-(pyridin-2-yl)ethyl)carbamoyl)pyrazolo[1,5-a]pyrimidin-6-yl)acetic acid], the EC50 was more than 1 µM.
Consider `Cc1nc2cc(C(=O)N3CCN(CCc4ccccc4)CC3)nn2c(-c2cc(F)c3c(c2C)CCCO3)c1[C@H](OC(C)(C)C)C(=O)O` [Example 90, (2S)-2-(tert-butoxy)-2-(7-(8-fluoro-5-methylchroman-6-yl)-5-methyl-2-(4-phenethylpiperazine-1-carbonyl)pyrazolo[1,5-a]pyrimidin-6-yl)acetic acid], for which the EC50 was 0.1 to 1 µM.
Consider `Cc1nc2cc(C(=O)N3CCN(CCN4CCOCC4)CC3)nn2c(-c2cc(F)c3c(c2C)CCCO3)c1[C@H](OC(C)(C)C)C(=O)O` [Example 91, (2S)-2-(tert-butoxy)-2-(7-(8-fluoro-5-methylchroman-6-yl)-5-methyl-2-(4-(2-morpholinoethyl)piperazine-1-carbonyl)pyrazolo[1,5-a]pyrimidin-6-yl)acetic acid], for which the EC50 was more than 1 µM.
On to `Cc1nc2cc(C(=O)N3CCN(Cc4ccc5c(c4)OCO5)CC3)nn2c(-c2cc(F)c3c(c2C)CCCO3)c1[C@H](OC(C)(C)C)C(=O)O` [Example 92, (2S)-2-(2-(4-(benzo[d][1,3]dioxol-5-ylmethyl)piperazine-1-carbonyl)-7-(8-fluoro-5-methylchroman-6-yl)-5-methylpyrazolo[1,5-a]pyrimidin-6-yl)-2-(tert-butoxy)acetic acid], for which the EC50 was in the range of 0.1 to 1 µM.
Still for that read-out and setting: as for `Cc1nc2cc(C(=O)N3CCN(c4ccccc4)CC3)nn2c(-c2cc(F)c3c(c2C)CCCO3)c1[C@H](OC(C)(C)C)C(=O)O` [Example 93, (2S)-2-(tert-butoxy)-2-(7-(8-fluoro-5-methylchroman-6-yl)-5-methyl-2-(4-phenylpiperazine-1-carbonyl)pyrazolo[1,5-a]pyrimidin-6-yl)acetic acid], the figure is less than 0.1 µM; as for `Cc1nc2cc(C(=O)N3CCN(Cc4ccccc4)CC3)nn2c(-c2cc(F)c3c(c2C)CCCO3)c1[C@H](OC(C)(C)C)C(=O)O` [Example 94, (2S)-2-(2-(4-benzylpiperazine-1-carbonyl)-7-(8-fluoro-5-methylchroman-6-yl)-5-methylpyrazolo[1,5-a]pyrimidin-6-yl)-2-(tert-butoxy)acetic acid], 0.1 to 1 µM; as for `Cc1nc2cc(C(=O)N3CCC(N4CCCCC4)CC3)nn2c(-c2cc(F)c3c(c2C)CCCO3)c1[C@H](OC(C)(C)C)C(=O)O` [Example 95, (2S)-2-(2-([1,4′-bipiperidine]-1′-carbonyl)-7-(8-fluoro-5-methylchroman-6-yl)-5-methylpyrazolo[1,5-a]pyrimidin-6-yl)-2-(tert-butoxy)acetic acid], more than 1 µM.
With `Cc1nc2cc(C(=O)N(C)CCc3ccccc3)nn2c(-c2cc(F)c3c(c2C)CCCO3)c1[C@H](OC(C)(C)C)C(=O)O` [Example 96, (2S)-2-(tert-butoxy)-2-(7-(8-fluoro-5-methylchroman-6-yl)-5-methyl-2-(methyl(phenethyl)carbamoyl)pyrazolo[1,5-a]pyrimidin-6-yl)acetic acid], the EC50 is less than 0.1 µM.
`Cc1nc2cc(C(=O)N(C)Cc3cccnc3)nn2c(-c2cc(F)c3c(c2C)CCCO3)c1[C@H](OC(C)(C)C)C(=O)O` [Example 97, (2S)-2-(tert-butoxy)-2-(7-(8-fluoro-5-methylchroman-6-yl)-5-methyl-2-(methyl(pyridin-3-ylmethyl)carbamoyl)pyrazolo[1,5-a]pyrimidin-6-yl)acetic acid]: the EC50 is more than 1 µM.
The same measure, in the same setting: as for `Cc1nc2cc(C(=O)N(C)CCC(C)C)nn2c(-c2cc(F)c3c(c2C)CCCO3)c1[C@H](OC(C)(C)C)C(=O)O` [Example 98, (2S)-2-(tert-butoxy)-2-(7-(8-fluoro-5-methylchroman-6-yl)-2-(isopentyl(methyl)carbamoyl)-5-methylpyrazolo[1,5-a]pyrimidin-6-yl)acetic acid], the figure is less than 0.1 µM; as for `Cc1nc2cc(C(=O)NCc3cccc(-n4cccc4)c3)nn2c(-c2cc(F)c3c(c2C)CCCO3)c1[C@H](OC(C)(C)C)C(=O)O` [Example 99, (2S)-2-(2-((3-(1H-pyrrol-1-yl)benzyl)carbamoyl)-7-(8-fluoro-5-methylchroman-6-yl)-5-methylpyrazolo[1,5-a]pyrimidin-6-yl)-2-(tert-butoxy)acetic acid], less than 0.1 µM.
Consider `Cc1nc2cc(C(=O)NCc3cccc(N4CCOCC4)c3)nn2c(-c2cc(F)c3c(c2C)CCCO3)c1[C@H](OC(C)(C)C)C(=O)O` [Example 100], for which the EC50 was in the range of 0.1 to 1 µM.
Regarding `Cc1nc2cc(C(=O)NCC3CCOCC3)nn2c(-c2cc(F)c3c(c2C)CCCO3)c1[C@H](OC(C)(C)C)C(=O)O` [Example 101, (2S)-2-(tert-butoxy)-2-(7-(8-fluoro-5-methylchroman-6-yl)-5-methyl-2-(((tetrahydro-2H-pyran-4-yl)methyl)carbamoyl)pyrazolo[1,5-a]pyrimidin-6-yl)acetic acid], the EC50 is 0.1 to 1 µM.
As to `Cc1nc2cc(C(=O)NCCOC(C)C)nn2c(-c2cc(F)c3c(c2C)CCCO3)c1[C@H](OC(C)(C)C)C(=O)O` [Example 102, (2S)-2-(tert-butoxy)-2-(7-(8-fluoro-5-methylchroman-6-yl)-2-((2-isopropoxyethyl)carbamoyl)-5-methylpyrazolo[1,5-a]pyrimidin-6-yl)acetic acid], the EC50 was less than 0.1 µM.
On the same count and under the same terms, as for `Cc1nc2cc(C(=O)NCCOC(C)(C)C)nn2c(-c2cc(F)c3c(c2C)CCCO3)c1[C@H](OC(C)(C)C)C(=O)O` [Example 103, (2S)-2-(tert-butoxy)-2-(2-((2-(tert-butoxy)ethyl)carbamoyl)-7-(8-fluoro-5-methylchroman-6-yl)-5-methylpyrazolo[1,5-a]pyrimidin-6-yl)acetic acid], the figure is 0.1 to 1 µM; as for `Cc1nc2cc(C(=O)NCc3ccccn3)nn2c(-c2cc(F)c3c(c2C)CCCO3)c1[C@H](OC(C)(C)C)C(=O)O` [Example 104, (2S)-2-(tert-butoxy)-2-(7-(8-fluoro-5-methylchroman-6-yl)-5-methyl-2-((pyridin-2-ylmethyl)carbamoyl)pyrazolo[1,5-a]pyrimidin-6-yl)acetic acid], more than 1 µM.
As to `Cc1nc2cc(C(=O)N3CCC(Cc4ccccc4)CC3)nn2c(-c2cc(F)c3c(c2C)CCCO3)c1[C@H](OC(C)(C)C)C(=O)O` [Example 105, (2S)-2-(2-(4-benzylpiperidine-1-carbonyl)-7-(8-fluoro-5-methylchroman-6-yl)-5-methylpyrazolo[1,5-a]pyrimidin-6-yl)-2-(tert-butoxy)acetic acid], the EC50 was less than 0.1 µM.
Same read-out and setting: in the case of `Cc1nc2cc(C(=O)N3CCC(CCO)CC3)nn2c(-c2cc(F)c3c(c2C)CCCO3)c1[C@H](OC(C)(C)C)C(=O)O` [Example 106, (2S)-2-(tert-butoxy)-2-(7-(8-fluoro-5-methylchroman-6-yl)-2-(4-(2-hydroxyethyl)piperidine-1-carbonyl)-5-methylpyrazolo[1,5-a]pyrimidin-6-yl)acetic acid] it was more than 1 µM; in that of `Cc1nc2cc(C(=O)NCCCN3CCOCC3)nn2c(-c2cc(F)c3c(c2C)CCCO3)c1[C@H](OC(C)(C)C)C(=O)O` [Example 107], more than 1 µM; in that of `Cc1nc2cc(C(=O)NCc3ccc(Cl)cc3Cl)nn2c(-c2cc(F)c3c(c2C)CCCO3)c1[C@H](OC(C)(C)C)C(=O)O` [Example 108, (2S)-2-(tert-butoxy)-2-(2-((2,4-dichlorobenzyl)carbamoyl)-7-(8-fluoro-5-methylchroman-6-yl)-5-methylpyrazolo[1,5-a]pyrimidin-6-yl)acetic acid], less than 0.1 µM.
Consider `Cc1nc2cc(C(=O)NCc3ccc(Cl)c(Cl)c3)nn2c(-c2cc(F)c3c(c2C)CCCO3)c1[C@H](OC(C)(C)C)C(=O)O` [Example 109, (2S)-2-(tert-butoxy)-2-(2-((3,4-dichlorobenzyl)carbamoyl)-7-(8-fluoro-5-methylchroman-6-yl)-5-methylpyrazolo[1,5-a]pyrimidin-6-yl)acetic acid], for which the EC50 is less than 0.1 µM.
As for `COc1ccc(CNC(=O)c2cc3nc(C)c([C@H](OC(C)(C)C)C(=O)O)c(-c4cc(F)c5c(c4C)CCCO5)n3n2)cc1` [Example 110, (2S)-2-(tert-butoxy)-2-(7-(8-fluoro-5-methylchroman-6-yl)-2-((4-methoxybenzyl)carbamoyl)-5-methylpyrazolo[1,5-a]pyrimidin-6-yl)acetic acid], the EC50 was less than 0.1 µM.
Take `Cc1nc2cc(C(=O)NCCc3ccccc3Cl)nn2c(-c2cc(F)c3c(c2C)CCCO3)c1[C@H](OC(C)(C)C)C(=O)O` [Example 111, (2S)-2-(tert-butoxy)-2-(2-((2-chlorophenethyl)carbamoyl)-7-(8-fluoro-5-methylchroman-6-yl)-5-methylpyrazolo[1,5-a]pyrimidin-6-yl)acetic acid]: the EC50 was less than 0.1 µM.
Take `Cc1nc2cc(C(=O)NCCc3ccc(Cl)cc3)nn2c(-c2cc(F)c3c(c2C)CCCO3)c1[C@H](OC(C)(C)C)C(=O)O` [Example 112, (2S)-2-(tert-butoxy)-2-(2-((4-chlorophenethyl)carbamoyl)-7-(8-fluoro-5-methylchroman-6-yl)-5-methylpyrazolo[1,5-a]pyrimidin-6-yl)acetic acid]: the EC50 was less than 0.1 µM.
As to `Cc1nc2cc(C(=O)N(Cc3ccccc3)C(C)C)nn2c(-c2cc(F)c3c(c2C)CCCO3)c1[C@H](OC(C)(C)C)C(=O)O` [Example 113, (2S)-2-(2-(benzyl(isopropyl)carbamoyl)-7-(8-fluoro-5-methylchroman-6-yl)-5-methylpyrazolo[1,5-a]pyrimidin-6-yl)-2-(tert-butoxy)acetic acid], the EC50 is less than 0.1 µM.
For `CCCCNC(=O)c1cc2nc(C)c([C@H](OC(C)(C)C)C(=O)O)c(-c3cc(F)c4c(c3C)CCCO4)n2n1` [Example 114, (2S)-2-(tert-butoxy)-2-(2-(butylcarbamoyl)-7-(8-fluoro-5-methylchroman-6-yl)-5-methylpyrazolo[1,5-a]pyrimidin-6-yl)acetic acid], the EC50 is less than 0.1 µM.

Still in this test, the particulars now being: Human immunodeficiency virus 1, MT2, 120 h, read-out: EC50 μM.
Regarding `Cc1nc2cc(C(=O)N(C)CCc3ccccc3)nn2c(-c2cc(F)c3c(c2C)CCCO3)c1[C@H](OC(C)(C)C)C(=O)O` [Example 96, (2S)-2-(tert-butoxy)-2-(7-(8-fluoro-5-methylchroman-6-yl)-5-methyl-2-(methyl(phenethyl)carbamoyl)pyrazolo[1,5-a]pyrimidin-6-yl)acetic acid], the EC50 is 0.077 µM.
Same read-out and setting: as for `Cc1nc2cc(C(=O)NCCOC(C)(C)C)nn2c(-c2cc(F)c3c(c2C)CCCO3)c1[C@H](OC(C)(C)C)C(=O)O` [Example 103, (2S)-2-(tert-butoxy)-2-(2-((2-(tert-butoxy)ethyl)carbamoyl)-7-(8-fluoro-5-methylchroman-6-yl)-5-methylpyrazolo[1,5-a]pyrimidin-6-yl)acetic acid], the figure is 0.073 µM; as for `Cc1nc2cc(C(=O)NCc3ccc(Cl)cc3Cl)nn2c(-c2cc(F)c3c(c2C)CCCO3)c1[C@H](OC(C)(C)C)C(=O)O` [Example 108, (2S)-2-(tert-butoxy)-2-(2-((2,4-dichlorobenzyl)carbamoyl)-7-(8-fluoro-5-methylchroman-6-yl)-5-methylpyrazolo[1,5-a]pyrimidin-6-yl)acetic acid], 0.013 µM.
